≈ marks a conversion by molar mass, not a printed value. Read-outs that look alike come from different tables or passages of the source. Marks after values point to notes of the source that are not given here.

The values that follow come from publication PMC12540964 (AMB Express, 2025).

Assay [1] relates to Escherichia coli (ATCC 25922). The assay is described as follows: Disk diffusion method (inhibition zone diameter). The assay is classed as cell-based. To be noted: E. coli, Gram-negative. Here is the method: (§1) The strains Escherichia coli (ATCC 25922), Pseudomonas aeruginosa NIH, Listeria monocytogenes (ATCC 13932), and Staphylococcus aureus (ATCC 29213) were used. After overnight incubation at 30 °C, the inhibition zone diameters (IZD) were measured in millimeters (mm). Next, the microdilution method served to assess the minimum inhibitory concentration (MIC) and minimum bactericidal concentration (MBC) (Bouyahya et al. [2020a], [b]).

The test system of assay [2] is Listeria monocytogenes (ATCC 13932). As to the kind of experiment: Disk diffusion method (inhibition zone diameter). The assay is classed as cell-based. To be noted: L. monocytogenes, Gram-positive. The protocol: as §1
Assay [3] concerns Pseudomonas aeruginosa NIH. The assay is described as follows: Disk diffusion method (inhibition zone diameter). To be noted: P. aeruginosa, Gram-negative. The assay is classed as cell-based. The protocol:
as §1

Assay [4] concerns Staphylococcus aureus (ATCC 29213). The assay is described as follows: Disk diffusion method (inhibition zone diameter). The assay is classed as cell-based. To be noted: S. aureus, Gram-positive. The protocol:
as §1

Assay [5] concerns Escherichia coli (ATCC 25922). The assay is described as follows: Microdilution method (MIC, MBC). The assay is classed as cell-based. The protocol:
as §1

In assay [6] the test system is Listeria monocytogenes (ATCC 13932). As to the kind of experiment: Microdilution method (MIC, MBC). The assay is classed as cell-based. Particulars: for MBC/MIC: 1 suggests bactericidal; for MBC / MIC: Listeria monocytogenes. Here is the method: as §1
Assay [7] relates to Pseudomonas aeruginosa NIH. As to the kind of experiment: Microdilution method (MIC, MBC). The assay is classed as cell-based. Particulars: for MBC/MIC: 1 suggests bactericidal; for MBC / MIC: Pseudomonas aeruginosa; for MBC: read-out: MBC (minimum bactericidal concentration); for MIC: read-out: MIC (minimum inhibitory concentration). Here is the method: as §1
In assay [8] the test system is Staphylococcus aureus (ATCC 29213). The assay is described as follows: Microdilution method (MIC, MBC). The assay is classed as cell-based. The protocol:
as §1

The nature of another assay: DPPH test. Particulars: radical scavenging, 30 min, 517 nm. Here is the method: This assay used DPPH radical to assess the free radical-scavenging ability. Samples dissolved in methanol were mixed with a methanolic solution of DPPH and incubated, in triplicate, at ambient temperature for 30 min (El Omari et al. [2023]). Absorbance was read at 517 nm, and the percentage of DPPH radical scavenging and the inhibition in IC50 (μg/mL) were calculated. Trolox served as a positive control.

A short description of assay [9]: ABTS radical scavenging activity. The protocol:
The ABTS cation radical was generated from the reaction between ABTS solution and potassium persulfate with Trolox as a positive control. The assay was performed in triplicate and expressed in IC50 (μg/mL) (El Omari et al. [2023]).

Assay [10] in a line: Reducing ferric power test (FRAP). Particulars: 700 nm. Here is the method:
CEEO, carvacrol, menthol, and tricosane were mixed with phosphate buffer and potassium ferricyanide solution, incubated, and treated with trichloroacetic acid. After centrifugation, the upper layer was analyzed for absorbance (700 nm) with Trolox serving as a reference. The assay was done in triplicate, and the IC50 (μg/mL) was calculated (El Omari et al. [2023]).

The target in another assay is T1, α-amylase (Bacillus licheniformis, UniProt P06278).
T1 construct: purchased
As to the kind of experiment: α-Amylase inhibitory test. The assay is classed as biochemical. Here is the method:
(§2) The α-glucosidase from Saccharomyces cerevisiae and the α-amylase from Bacillus licheniformis were also obtained from reliable commercial sources. Additional reagents were carefully selected from reputable suppliers. Mueller–Hinton agar was sourced from Biokar in Beauvais, France. All other chemicals used are of analytical grade.
Initially, 250 μL of each sample was mixed with 250 μL of sodium phosphate buffer (SPB) (0.02 M & pH = 6.9) and α-amylase enzyme (240 U/mL). The blend was then incubated at 37 °C/20 min. Then, a 1% starch solution (250 μL) in SPB was added, followed by incubation at 37 °C/15 min. Thereafter, 1 mL of dinitrosalicylic acid (DNS) was also added, and the mix was heated for 10 min (Bouyahya et al. [2019a], [b]; Omari et al. [2023]). The solution was then diluted with 2 mL of sterile water, and the OD (540 nm) was measured. […] The % of inhibition was calculated using the formula: [drawing 1]

For another assay, the target named is T2, α-glucosidase (Saccharomyces cerevisiae, UniProt P53341).
T2 construct: purchased
The assay is described as follows: α-Glucosidase inhibitory test. The assay is classed as biochemical. Here is the method: as §2
The inhibition of α-glucosidase action was assessed using the pNPG substrate as previously detailed (Bouyahya et al. [2021]). A mixture of 200 μL of the samples and 100 μL SPB (0.1 M & pH = 6.7), mixed with α-glucosidase (0.1 U/mL), underwent incubation at 37 °C/10 min. Next, 200 μL of pNPG (1 mM) solution in SPB (0.1 M & pH = 6.7) was added, then incubated at 37 °C/30 min. The measurement of α-glucosidase inhibition was done by measuring the OD (405 nm) after adding 1 mL of Na2CO3 (0.1 M).

In the next assay the target is elastase (Sus scrofa, UniProt P00772). The assay is described as follows: Elastase inhibitory assay. The assay is classed as biochemical. To be noted: 410 nm. The protocol:
Then, 200 µL of an elastase solution prepared in Tris–HCl buffer (0.2 M, pH 8.0) was mixed with 50 µL of each sample. Following a 15-min incubation at 25 °C, 200 µL of N-succinyl-Ala-Ala-p-nitroanilide solution was added, and the reaction mixtures were homogenized. Absorbances were recorded at 410 nm after an additional 20-min incubation at 25 °C. The data obtained were used to determine the IC50 and to calculate the percent inhibition of elastase.

In another assay the target is tyrosinase (Agaricus bisporus, UniProt C7FF04). Details: method as in El Khoury et al. [2019]. To be noted: carvacrol from Origanum EOs; ref El Khoury et al. [2019]; cited from earlier work.
The mark [11] stands for this setting: Elastase IC50, N-succinyl-Ala-Ala-p-nitroanilide.
Where [12] appears, read: ATCC25922, E. coli, read-out: MBC (minimum bactericidal concentration).
Setting [13] is: ATCC25922, E. coli, read-out: MIC (minimum inhibitory concentration).
[14] abbreviates: ATCC13932, L. monocytogenes, read-out: MBC (minimum bactericidal concentration).
Setting [15] is: ATCC13932, L. monocytogenes, read-out: MIC (minimum inhibitory concentration).
Setting [16] is: ATCC29213, S. aureus, read-out: MBC (minimum bactericidal concentration).
Setting [17] is: ATCC29213, S. aureus, read-out: MIC (minimum inhibitory concentration).

elastase, sequence (P00772 27-266): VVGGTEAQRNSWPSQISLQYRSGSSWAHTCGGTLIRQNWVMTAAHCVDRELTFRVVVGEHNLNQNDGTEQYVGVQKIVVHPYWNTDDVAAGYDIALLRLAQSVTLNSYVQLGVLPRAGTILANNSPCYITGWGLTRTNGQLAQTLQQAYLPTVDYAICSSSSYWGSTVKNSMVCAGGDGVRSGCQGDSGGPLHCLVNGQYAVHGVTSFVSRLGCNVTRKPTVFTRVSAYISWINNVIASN
T1 sequence (P06278 30-512): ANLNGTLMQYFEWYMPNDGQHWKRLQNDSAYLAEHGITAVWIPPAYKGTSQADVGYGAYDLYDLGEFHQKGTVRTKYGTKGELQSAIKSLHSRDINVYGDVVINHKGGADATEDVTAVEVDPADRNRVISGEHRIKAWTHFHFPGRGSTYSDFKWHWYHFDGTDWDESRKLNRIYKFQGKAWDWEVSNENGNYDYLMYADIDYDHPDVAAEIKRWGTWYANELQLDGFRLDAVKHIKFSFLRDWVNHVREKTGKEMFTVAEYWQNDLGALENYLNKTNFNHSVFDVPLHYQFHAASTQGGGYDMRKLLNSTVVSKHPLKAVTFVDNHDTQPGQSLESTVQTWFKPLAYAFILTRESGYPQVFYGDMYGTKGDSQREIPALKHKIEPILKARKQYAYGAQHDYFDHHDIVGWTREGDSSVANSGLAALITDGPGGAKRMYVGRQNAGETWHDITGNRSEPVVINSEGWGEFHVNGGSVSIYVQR
T2 sequence (P53341 whole entry): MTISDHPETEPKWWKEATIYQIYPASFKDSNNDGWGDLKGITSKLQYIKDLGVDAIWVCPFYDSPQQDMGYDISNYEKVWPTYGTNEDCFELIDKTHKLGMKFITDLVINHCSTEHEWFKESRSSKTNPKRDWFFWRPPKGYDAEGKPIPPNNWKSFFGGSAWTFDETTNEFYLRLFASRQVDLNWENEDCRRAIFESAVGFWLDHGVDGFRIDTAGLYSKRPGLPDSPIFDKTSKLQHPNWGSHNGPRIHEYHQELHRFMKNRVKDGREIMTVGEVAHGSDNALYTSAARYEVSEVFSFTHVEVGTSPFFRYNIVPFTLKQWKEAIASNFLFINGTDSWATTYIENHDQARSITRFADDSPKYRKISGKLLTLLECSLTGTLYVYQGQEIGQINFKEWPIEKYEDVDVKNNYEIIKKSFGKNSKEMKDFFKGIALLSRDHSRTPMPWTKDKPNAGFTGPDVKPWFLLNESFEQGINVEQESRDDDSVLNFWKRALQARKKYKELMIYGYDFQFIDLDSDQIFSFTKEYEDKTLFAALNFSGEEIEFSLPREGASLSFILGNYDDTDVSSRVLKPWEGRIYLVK
tyrosinase, sequence (C7FF04 1-392): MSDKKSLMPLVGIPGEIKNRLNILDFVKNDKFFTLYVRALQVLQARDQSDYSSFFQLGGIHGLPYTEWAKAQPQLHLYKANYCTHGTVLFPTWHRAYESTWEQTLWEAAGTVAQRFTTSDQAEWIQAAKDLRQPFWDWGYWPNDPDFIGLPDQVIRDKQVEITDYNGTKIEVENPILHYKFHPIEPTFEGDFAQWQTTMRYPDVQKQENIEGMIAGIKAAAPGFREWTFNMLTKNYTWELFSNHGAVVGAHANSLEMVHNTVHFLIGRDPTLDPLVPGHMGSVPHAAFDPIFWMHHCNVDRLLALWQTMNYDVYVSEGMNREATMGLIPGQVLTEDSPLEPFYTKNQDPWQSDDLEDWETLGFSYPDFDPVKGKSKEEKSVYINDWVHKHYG

On to `Cc1ccc(C(C)C)cc1O` [Carvacrol, carvacrol], for which the “IZD (inhibition zone diameter)” value in assay [1] was 31.33 ± 2.51^b mm; in assay [2], 33 ± 2.64^a mm; in assay [3], 29 ± 2.64^c mm; in [4] it was 35.33 ± 1.52^a mm. Besides, the MBC in assay [5] (ATCC25922, read-out: MBC (minimum bactericidal concentration)) was 0.25 µg/mL (≈ 1.66 µM); in assay [6] (ATCC13932, read-out: MBC (minimum bactericidal concentration)) it was 0.125 µg/mL (≈ 0.832 µM); in assay [7] it was 0.5 µg/mL (≈ 3.33 µM); in [8] (ATCC29213, read-out: MBC (minimum bactericidal concentration)), 0.025 µg/mL (≈ 0.166 µM). The MIC stood at 0.125 µg/mL (≈ 0.832 µM) in assay [5] (ATCC25922, read-out: MIC (minimum inhibitory concentration)); 0.125 µg/mL (≈ 0.832 µM) in assay [6] (ATCC13932, read-out: MIC (minimum inhibitory concentration)); 0.5 µg/mL (≈ 3.33 µM) in [7]; 0.0125 µg/mL (≈ 0.0832 µM) in assay [8] (ATCC29213, read-out: MIC (minimum inhibitory concentration)). The MBC/MIC in assay [6] (L. monocytogenes) and in assay [7] (P. aeruginosa) was 1 throughout. For the same compound, in “DPPH test”, the “DPPH IC50” value is reported as 48.06 ± 4.31^h µg/mL. For the same compound, in assay [9], the “ABTS IC50” value is 81.41 ± 4.31^b µg/mL. Besides, the “FRAP IC50” value in assay [10] is 59.96 ± 2.60^f µg/mL. Besides, the IC50 was 3770 µM at α-amylase, 1340 µM at α-glucosidase and 830 µM against elastase (setting [11]). Besides, the tyrosinase inhibition on tyrosinase is listed as 56.55%.
Consider `O=C(N[C@H](CO)[C@H](O)c1ccc([N+](=O)[O-])cc1)C(Cl)Cl` [Chloramphenicol, reference compound], for which the MBC in assay [5] (setting [12]) amounted to 32 µg/mL (≈ 99 µM); in assay [6] (setting [14]), 32 µg/mL (≈ 99 µM); in [7] (P. aeruginosa) it was 64 µg/mL (≈ 198 µM); in assay [8] (setting [16]), 32 µg/mL (≈ 99 µM). Moreover, the MIC came to 8 µg/mL (≈ 24.8 µM) in assay [5] (setting [13]), 16 µg/mL (≈ 49.5 µM) in assay [6] (setting [15]), 64 µg/mL (≈ 198 µM) in assay [7] (P. aeruginosa) and 8 µg/mL (≈ 24.8 µM) in assay [8] (setting [17]).
On to `CC1CCC(C(C)C)C(O)C1` (stereo not shown) [Menthol, menthol], for which the “IZD (inhibition zone diameter)” value in assay [1] was 14 ± 2^a mm; in assay [2] it was 26.33 ± 1.52^b mm; in assay [3] it was 18 ± 4.5^b mm; in assay [4], 32 ± 2.64^a mm. Further, the MBC in assay [5] (setting [12]) came out at 2 µg/mL (≈ 12.8 µM); in [6] (setting [14]) it was 0.5 µg/mL (≈ 3.2 µM); in [7] (P. aeruginosa), 1 µg/mL (≈ 6.4 µM); in assay [8] (setting [16]), 1 µg/mL (≈ 6.4 µM). Also, the MIC in assay [5] (setting [13]) was found to be 0.5 µg/mL (≈ 3.2 µM); in assay [6] (setting [15]), 0.25 µg/mL (≈ 1.6 µM); in [7] (P. aeruginosa), 0.25 µg/mL (≈ 1.6 µM); in assay [8] (setting [17]), 0.5 µg/mL (≈ 3.2 µM). Also, the “DPPH IC50” value in “DPPH test” is given as 58.89 ± 4.03^a µg/mL. For the same compound, the “ABTS IC50” value in assay [9] is listed as 71.76 ± 3.16^a µg/mL. In addition, the “FRAP IC50” value in assay [10] is recorded as 57.93 ± 15.63^f µg/mL. In addition, the IC50 was 3020 µM against α-amylase, 1170 µM against α-glucosidase and 717 µM against elastase (setting [11]).
Take `CCCCCCCCCCCCCCCCCCCCCCC` [Tricosane, tricosane]: the “IZD (inhibition zone diameter)” value in assay [1] is recorded as 20.67 ± 2.08^C mm; in assay [2], 31.67 ± 4.04^b mm; in assay [3], 17 ± 2.51^b mm; in [4], 29 ± 4.58^a mm. Further, the MBC in assay [5] (setting [12]) was found to be 1 µg/mL (≈ 3.08 µM); in [6] (setting [14]), 0.25 µg/mL (≈ 0.77 µM); in assay [7] (P. aeruginosa), 0.5 µg/mL (≈ 1.54 µM); in assay [8] (setting [16]) it was 0.5 µg/mL (≈ 1.54 µM). The MIC was determined as 0.25 µg/mL (≈ 0.77 µM) in [5] (setting [13]), 0.25 µg/mL (≈ 0.77 µM) in assay [6] (setting [15]), 0.5 µg/mL (≈ 1.54 µM) in assay [7] (P. aeruginosa) and 0.125 µg/mL (≈ 0.385 µM) in assay [8] (setting [17]). Moreover, the MBC/MIC in assay [6] (L. monocytogenes) and in assay [7] (P. aeruginosa) was 1 throughout. In the assay “DPPH test”, the “DPPH IC50” value was 91.03 ± 0.3^b µg/mL. Moreover, in assay [9], the “ABTS IC50” value is given as 120.34 ± 2.97 µg/mL. For the same compound, the “FRAP IC50” value in assay [10] was 103.9 ± 2.48 µg/mL. Moreover, the IC50 on α-amylase was 1190 µM; against α-glucosidase it was 592 µM; on elastase (N-succinyl-Ala-Ala-p-nitroanilide, read-out: Elastase IC50 (converted)) it was 384 µM.
For `Cc1c(C)c2c(c(C)c1O)CCC(C)(C(=O)O)O2` (stereo not shown) [Trolox, reference compound], the “DPPH IC50” value in “DPPH test” is listed as 34.12 ± 2.13^h µg/mL. Moreover, the “ABTS IC50” value in assay [9] was 55.25 ± 4.19^b µg/mL. In assay [10], the “FRAP IC50” value was 54.74 ± 3.85^f µg/mL.
